In ChEMBL document CHEMBL1159266, “Antineoplastic agents, 325. Isolation and structure of the human cancer cell growth inhibitory cyclic octapeptides phakellistatin 10 and 11 from Phakellia sp” (1995):
Values after ≈ are worked out from the molar mass of the structure shown. Where a SMILES comes first, the peptide text is derived from it.

How the values were obtained:
Format in all cases: functional
L1210 = assay: Cytotoxicity against mouse L1210 cells; settings: read-out: ED50 (the source's name)
P388 = assay: Cytotoxicity against mouse P388 cells; settings: read-out: ED50 (the source's name)
[1] = Growth inhibition of human NCI60 cells

Row | SMILES | EC50 (L1210) | EC50 (P388) | GI50 [1]
1 | CC(C)C[C@@H]1NC(=O)[C@@H]2CCCN2C(=O)[C@H](C(C)C)NC(=O)[C@H](Cc2c[nH]c3ccccc23)NC(=O)[C@@H]2CCCN2C(=O)[C@H](CC(C)C)NC(=O)[C@@H]2CCCN2C(=O)[C@H]([C@@H](C)O)NC1=O [HYMENAMIDE H] (cyclo(LPWVPLTP)) | 6.3 µg/mL (≈ 6.97 µM) |  | 
2 | CC(C)[C@@H]1NC(=O)[C@H](CCCCN)NC(=O)[C@H](Cc2c[nH]c3ccccc23)NC(=O)[C@H](Cc2ccccc2)NC(=O)[C@H](CC(=O)O)NC(=O)[C@H](Cc2ccc(O)cc2)NC(=O)[C@@H]2CCCN2C(=O)[C@H](Cc2ccc(O)cc2)NC1=O [HYMENAMIDE J] (cyclo(DFWKVYPY)) | 2.6 µg/mL (≈ 2.37 µM) |  | 
3 | CC[C@H](C)[C@@H]1NC(=O)[C@H](Cc2ccccc2)NC(=O)[C@@H]2CCCN2C(=O)[C@H](Cc2ccccc2)NC(=O)[C@@H]2CCCN2C(=O)[C@H](CCC(N)=O)NC(=O)[C@@H]2CCCN2C(=O)[C@H](Cc2ccccc2)NC1=O [PHAKELLI STATIN 11] (cyclo(FIFPQPFP)) |  | 0.2 µg/mL (≈ 0.205 µM) | 132 nM
4 | CC[C@H](C)[C@@H]1NC(=O)[C@@H]2CCCN2C(=O)[C@H]([C@@H](C)O)NC(=O)[C@H](CC(C)C)NC(=O)[C@@H]2CCCN2C(=O)[C@H](C(C)C)NC(=O)[C@H](Cc2ccc(O)cc2)NC(=O)[C@@H]2CCCN2C1=O [PHAKELLISTATIN 10] (cyclo(IPYVPLTP)) |  | 2.1 µg/mL (≈ 2.38 µM) | 790 nM
